Values joined by “and” are separate entries in the source; they are usually repeats but may differ in a detail not shown here. Equal entries are not always repeated. After the bases stand the sugars from the 5' end (letter, count) and the backbone: PS all phosphorothioate, else s phosphorothioate and o phosphodiester by linkage. Methylation of C is not given here. e = 2'-O-(2-methoxyethyl) (MOE); k = constrained ethyl (cEt); d = 2'-deoxy (DNA); m = 2'-O-methyl

The values below come from the OligoGym collection.

In this series the target is HSD17B13. As to conditions: ASO, HepaRG.

As for CAGTACAGTTCCTTTT (sugars k3 d10 k3, PS), the target mRNA inhibition (1 µM) stood at 43%.

“TTAGTTAGAATAGTCT (sugars kkdddddddddkekek, PS)” registered a target mRNA inhibition (1 µM) of 53%.

Sequence “CACAAGTAAGGTAAAG (sugars k3 d1 m1 d8 k3, PS)” came in with a target mRNA inhibition (1 µM) of 43%.

Take TGGATTACATACAAGA (sugars k3 d10 k3, PS): the target mRNA inhibition runs as follows: (0.02 µM) 0%; (0.078 µM) 0%; (0.313 µM) 21%; (1 µM) 68% and 50%; (1.25 µM) 58%; (5 µM) 87%.

As for CTATATACATCCAAGT (sugars k3 d10 k3, PS), where the note is “1 µM”, the target mRNA inhibition came out at 6%. On the same count and under the same terms, in the case of GCAAAGTTAATAGGAC (sugars k3 d10 k3, PS) it was 52%; in that of TCATTTAGAATACGCT (sugars k3 d10 k3, PS), 20%.

Consider CATAAGTTACCAGAGC (sugars k3 d10 k3, PS), for which the target mRNA inhibition reads like this: (0.02 µM) 26%; (0.078 µM) 41%; (0.313 µM) 63%; (1 µM) 80%; (1.25 µM) 86%; (5 µM) 94%. In turn, “ACTTGAACAGTCTTAA (sugars k3 d1 m1 d8 k3, PS)” had a target mRNA inhibition (1 µM) of 29%. On the same count and under the same terms, then CTAAATTTCAGTACCC (sugars k3 d10 k3, PS), with 33%.

On to ATGTAAAGTTTGTTAG (sugars k3 d10 k3, PS), for which the target mRNA inhibition (1 µM) is 12%. As to CCGCACACTGAAGCCA (sugars k3 d10 k3, PS), the target mRNA inhibition (1 µM) is 34%. Still for that read-out and setting: in the case of GGCAAAGATCTGGCCA (sugars k3 d10 k3, PS) it was 10%. Same read-out and setting: then TAACTACAAGAGGTTA (sugars k3 d10 k3, PS), with 22%; and AAAAACTTCACCAACG (sugars k3 d10 k3, PS), with 8%. For ATTTAGCATTGCCTGT (sugars k3 d10 k3, PS), for the setting “1 µM”, the target mRNA inhibition was determined as 10%. Sequence CTTACATGATTAAGCA (sugars k3 d10 k3, PS) showed a target mRNA inhibition (1 µM) of 44%. On the same count and under the same terms, then AATATATACCTGTTGC (sugars k3 d10 k3, PS), with 38%; and ATAGCCAGTACAGTTC (sugars k3 d10 k3, PS), with 65%; and CATCTATCATGCCTTC (sugars k3 d10 k3, PS), with 18%. GGGAGGAGGTACTGTC (sugars k3 d10 k3, PS) displayed a target mRNA inhibition (1 µM) of 35%. Still for that read-out and setting: then TACATATCTTACTCTG (sugars k3 d10 k3, PS), with 40%; and ATAAGAGCCAAACTGC (sugars k3 d10 k3, PS), with 49%; and TCTATCAGACTTCTTA (sugars k3 d10 k3, PS), with 49%. On the same count and under the same terms, then TCCAAGTAGGAGTAGA (sugars k3 d10 k3, PS), with 24%; and TGACATAACTTCATAG (sugars k3 d10 k3, PS), with 51%. GCTTATGAAGTTAGTA (sugars k3 d10 k3, PS) displayed a target mRNA inhibition (0.02 µM) of 0%; a target mRNA inhibition (0.078 µM) of 17%; a target mRNA inhibition (0.313 µM) of 27%; a target mRNA inhibition (1 µM) of 67%; a target mRNA inhibition (1.25 µM) of 66%; a target mRNA inhibition (5 µM) of 86%. “CCTCUAAGTTAGCCCC (sugars k3 d1 m1 d8 k3, PS)” returned a target mRNA inhibition (1 µM) of 8%. On the same count and under the same terms, in the case of “TTGCACCGTTTTGGGC (sugars kkdddddddddkekek, PS)” it was 26%; in that of AGCTGTGCACTCATTC (sugars k3 d10 k3, PS), 57%. With AGTATAGTTATCTTCT (sugars k3 d10 k3, PS), the target mRNA inhibition (1 µM) was determined as 67%. Same read-out and setting: in the case of “CAGGUTGAGATAAAGC (sugars k3 d1 m1 d8 k3, PS)” it was 55%.
